Like-named read-outs stand apart in the source and are kept apart here.
Assay: Phase II trial, PK analysis: pre-dose and 1 h post-dose blood levels by HPLC
Format: in vivo, human
Conditions: for Cmax: human, serum, 140 mg; for Trough: pre-dose
Procedure: Blood was collected before oral dose administration and 1 hour after oral dose administration on days 1, 8, 22, 43, and 64 after the start of therapy. Bimiralisib levels were determined as previously described using high-performance liquid chromatography[8-11] by Charles River Laboratories (Ashland, Ohio). The pre-dose levels were the trough levels and post-dose levels were the assumed peak serum concentration (Cmax) values. Cmax and trough accumulation ratios were calculated by dividing each patient’s treatment day concentration by their initial available drug concentration—day 1 for Cmax and day 8 for trough. Statistical differences among groups were identified by analysis of variance using Statistica version 13.1 (TIBCO Software Inc., Palo Alto, California); P < .05 was considered statistically significant

Nc1cc(C(F)(F)F)c(-c2nc(N3CCOCC3)nc(N3CCOCC3)n2)cn1 [Bimiralisib, 5-(4,6-dimorpholino-1,3,5-triazin-2-yl)-4-(trifluoromethyl)pyridin-2-amine]
Cmax (oral, 140-mg dose, current study, read-out: Maximum Cmax value): 970 ng/mL | Cmax (po, median, Day 1 (n = 6), 1 hour after 140 mg oral dose, read-out: C max): 574 ng/mL | Cmax (po, median, Day 8 (n = 6), 1 hour after oral dose, read-out: C max): 574 ng/mL | Cmax (po, median, Day 22 (n = 5), 1 hour after oral dose, read-out: C max): 691 ng/mL | Cmax (po, median, Day 43 (n = 4), 1 hour after oral dose, read-out: C max): 526 ng/mL | Cmax (po, median, Day 64 (n = 5), 1 hour after oral dose, read-out: C max): 546 ng/mL | Cmax accumulation (intermittent dosing regimen): not observed | Trough (median, Day 8 (n = 6)): 62 ng/mL | C max accumulation ratio (median, Day 8 vs day 1): 0.78 | Trough (median, Day 22 (n = 5)): 101 ng/mL | C max accumulation ratio (median, Day 22 vs day 1): 1.18 | Trough accumulation ratio (median, Day 22 vs day 8): 1.11 | Trough (median, Day 43 (n = 4)): 11.6 ng/mL | C max accumulation ratio (median, Day 43 vs day 1): 0.82 | Trough accumulation ratio (median, Day 43 vs day 8): 0.94 | Trough (median, Day 64 (n = 5)): 139 ng/mL | C max accumulation ratio (median, Day 64 vs day 1): 0.94 | Trough accumulation ratio (median, Day 64 vs day 8): 0.63

From paper PMC9732253, “Inhibition of the Phosphatidylinositol-3 Kinase Pathway Using Bimiralisib in Loss-of-Function NOTCH1-Mutant Head and Neck Cancer” (The Oncologist, 2022)
